# Tests used:
# Assay in all cases: relative viability (nuclei count vs DMSO), 5 days (fraction); higher = more cells survive
# [1] = compound: C1CNCCC1C2=CC(=NN2)C3=CC=NC=C3 + Cc1cc(Nc2cc(N3CCN(C)CC3)nc(Sc3ccc(NC(=O)C4CC4)cc3)n2)n[nH]1 [Tozasertib] (partner 0.1 µM)
# Summary of the method: (§1)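 The day after seeding in 1536-well plates, lung cancer cell lines were treated by pin tool with a single drug, or with a fixed anchor-drug dose together with five library-drug doses (not always all listed) in √10 steps. After 5 days, a combined fix-and-stain solution (final 0.05% Triton X-100, 1% formaldehyde, 1 ug/ml Hoechst) was added. Nuclei counted on 4× images gave relative viability as treated counts over vehicle counts, reported as the median of duplicate plates.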
# [2] = compound: C[C@@H](N)c1ccc(C(=O)Nc2ccnc3[nH]ccc23)cc1 + Cc1nc(Nc2ncc(C(=O)Nc3c(C)cccc3Cl)s2)cc(N2CCN(CCO)CC2)n1 [Dasatinib] (partner 0.075 µM)
# Summary of the method: as §1
# [3] = compound: C[C@@H](N)c1ccc(C(=O)Nc2ccnc3[nH]ccc23)cc1 + Nc1ncn([C@H]2C[C@H](O)[C@@H](CO)O2)c(=O)n1 [Decitabine] (partner 2 µM)
# Summary of the method: as §1
# Tanzisertib + Foretinib = compound: O[C@H]1CC[C@H](Nc2ncc3nc(Nc4c(F)cc(F)cc4F)n([C@H]4CCOC4)c3n2)CC1 [Tanzisertib] + COc1cc2c(Oc3ccc(NC(=O)C4(C(=O)Nc5ccc(F)cc5)CC4)cc3F)ccnc2cc1OCCCN1CCOCC1 [Foretinib] (partner 0.25 µM)
# Summary of the method: as §1
cell line,measurement,setting,value
UMC-11,relative viability,[1]; first compound 0.08 µM,0.196
same,relative viability,[1]; first compound 0.8 µM,0.214
same,relative viability,[1]; first compound 2.53 µM,0.205
same,relative viability,[1]; first compound 8 µM,0.207
same,relative viability,[2]; first compound 0.04 µM,0.543
same,relative viability,[2]; first compound 0.1265 µM,0.482
same,relative viability,[2]; first compound 0.4 µM,0.58
same,relative viability,[2]; first compound 1.265 µM,0.518
same,relative viability,[2]; first compound 4 µM,0.527
same,relative viability,[3]; first compound 0.1265 µM,0.608
same,relative viability,[3]; first compound 0.4 µM,0.604
same,relative viability,[3]; first compound 1.265 µM,0.481
same,relative viability,[3]; first compound 4 µM,0.324
same,relative viability,Tanzisertib + Foretinib; first compound 0.08 µM,0.976
same,relative viability,Tanzisertib + Foretinib; first compound 0.253 µM,1.14
same,relative viability,Tanzisertib + Foretinib; first compound 0.8 µM,0.962
same,relative viability,Tanzisertib + Foretinib; first compound 2.53 µM,1.01
same,relative viability,Tanzisertib + Foretinib; first compound 8 µM,1.18

# From the supplement of paper PMC10307832
